Results published in publication doi:10.1101/525105v1 (biorxiv, 2019).

Legend:
in vitro [1] = conditions: human, tzm-bl cells
[2] = biological target: HIV-1 RT (Roche colorimetric reverse transcriptase assay kit) (HIV-1 M:B_HXB2R, UniProt P04585); assay: colorimetric RT polymerase assay; format: biochemical
HIV-1IIIB = assay: microbe, parasite or virus in culture; design: species or system LC5-RIC; conditions: Human immunodeficiency virus 1, 48 h, read-out: IC50 HIV-1IIIB
in vitro [3] = conditions: human, lc5-ric cells
E. coli RNase H = biological target: T1, E. coli RNase H (Escherichia coli, UniProt P0A7Y4); assay: RNase H assay; format: biochemical
T1 sequence (P0A7Y4 1-155): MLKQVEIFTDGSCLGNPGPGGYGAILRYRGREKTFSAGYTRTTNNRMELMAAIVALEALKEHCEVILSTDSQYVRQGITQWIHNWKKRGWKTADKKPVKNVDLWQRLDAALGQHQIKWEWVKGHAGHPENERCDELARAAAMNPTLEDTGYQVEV

AMV RNase H = assay: RNase H assay; format: biochemical, Avian myeloblastosis virus; conditions: conditions not printed for this enzyme
[4] = biological target: HIV-1 integrase (XpressBio kit) (HIV-1 M:B_HXB2R, UniProt P04585); assay: HIV-1 integrase assay kit; format: biochemical

Structure (SMILES)	CC50 (in vitro [1]) [µM]	IC50 [2] [µM]	IC50 (HIV-1IIIB) [µM]	CC50 at 48 h (in vitro [3]) [µM]	IC50 (E. coli RNase H) [µM]	IC50 (AMV RNase H) [µM]	IC50 [4] [µM]
CC(C)Oc1ccc2cccnc2c1-c1cccc2ccccc12 [B#24, 7-(Isopropyloxy)-8-(naphth-1-yl)quinoline]	68.5 ± 17.1	> 100	7.6 ± 0.2	86.5 ± 3.7	44.3 ± 6.4	> 100	> 100
CC(C)Oc1ccc2cccnc2c1-c1cccc2cccnc12 [B#57, 7-(Isopropyloxy)-8,8′-biquinolyl]	> 200	> 100	> 200	> 200	> 100	> 100	> 100
CCN(CC)C(=O)Oc1ccc2cccnc2c1-c1cccc2cccnc12 [B#58, 7-[(Diethylamino)carbonyloxy]-8,8'-biquinolyl]	> 200		> 200				
CC(C)Oc1ccc2ccccc2c1-c1cccc2cccnc12 [B#59, 2-(Isopropyloxy)-1-(quinol-8-yl)naphthalene]	> 100		39.5 ± 1.7	144 ± 7.7			
CCN(CC)OC(=O)c1ccc2ccccc2c1-c1cccc2cccnc12 [B#60, 2-[(Diethylamino)oxycarbonyl]-1-(quinol-8-yl)naphthalene]	69.3 ± 4.9		50.1 ± 3.7	71.4 ± 2.8			
Cc1cc(/C=C/C#N)cc(C)c1Nc1ccnc(Nc2ccc(C#N)cc2)n1 [rilpivirine, reference compound]		~0.001			> 10	> 10	
